Measured values taken from ChEMBL document CHEMBL1800011, “Anti-leishmanial activity of disubstituted purines and related pyrazolo[4,3-d]pyrimidines” (Bioorg Med Chem Lett, 2011).

Assays:
[1] = test system: Leishmania donovani; experiment: Inhibition of Leishmania donovani CRK3/CYC6 activity expressed in Escherichia coli using 15 uM ATP at 30 uM
[2] = Inhibition of Leishmania donovani CRK3/CYC6 activity expressed in Escherichia coli using 15 uM ATP
[3] = test system: Leishmania donovani; experiment: Antileishmanial activity against axenic amastigotes of Leishmania donovani MHOM/SD/1962/1S-Cl2d at 30 uM after 24 hrs by alamar Blue viability assay; type: functional
[4] = test system: Leishmania donovani; experiment: Antileishmanial activity against axenic amastigotes of Leishmania donovani MHOM/SD/1962/1S-Cl2d after 24 hrs by alamar Blue viability assay; type: functional, organism-based

With `COc1ccc(CNc2ncnc3c2ncn3C(C)C)cc1OC` the inhibition [1] was -2.3%, the IC50 [2] was > 100 µM and the inhibition at 30 µM [3] was 1.9%.
For `COc1ccc(CNc2ncnc3c2ncn3C(C)C)cc1O`, the inhibition [1] was 11.2%, the IC50 [2] was > 100 µM and the inhibition at 30 µM [3] was 8.8%.
With `CC(C)c1n[nH]c2c(NCc3cccc(O)c3)ncnc12` the EC50 [4] was > 100 µM, the inhibition [1] was 35.8% and the IC50 [2] was 83.2 µM. The inhibition at 30 µM [3] was 25.4%.
For `CC(C)n1cnc2c(Nc3cccc(Cl)c3)ncnc21`, the inhibition [1] was 22.3%, the IC50 [2] was > 100 µM and the inhibition at 30 µM [3] was 35.1%.
With `CC(C)n1cnc2c(NCc3ccccc3N)ncnc21` the inhibition [1] was 11%, the IC50 [2] was > 100 µM and the inhibition at 30 µM [3] was 6.6%.
With `CC(C)c1n[nH]c2c(NC3CCC(N)CC3)ncnc12` (stereo unspecified) the EC50 [4] was > 100 µM, the inhibition [1] was 35% and the IC50 [2] was > 100 µM. It also gave an inhibition at 30 µM [3] of 3.3%.
For `CC(C)c1n[nH]c2c(NC34CC5CC(CC(C5)C3)C4)ncnc12`, the EC50 [4] was 1.22 µM, the inhibition [1] was 93.8% and the IC50 [2] was 1.82 µM. For the same molecule, the inhibition at 30 µM [3] was 73.2%.
With `CC(C)n1cnc2c(NCc3ccco3)ncnc21` the inhibition [1] was 3.5%, the IC50 [2] was > 100 µM and the inhibition at 30 µM [3] was 14.5%.
With `CC(C)c1n[nH]c2c(NC3CCCCC3N)ncnc12` (stereo unspecified) the EC50 [4] was > 100 µM, the inhibition [1] was 2.4% and the IC50 [2] was > 100 µM. The inhibition at 30 µM [3] was 15.8%.
`CC(C)c1n[nH]c2c(Nc3ccc(F)cc3)ncnc12` showed an EC50 [4] of 11.6 µM, an inhibition [1] of 78.8% and an IC50 [2] of 6.8 µM. For the same molecule, the inhibition at 30 µM [3] was 75.8%.
For `CC(C)n1cnc2c(NC3CCC(N)CC3)ncnc21` (stereo unspecified), the inhibition [1] was 26.4%, the IC50 [2] was > 100 µM and the inhibition at 30 µM [3] was 1%.
In the case of `CC(C)c1n[nH]c2c(NCc3ccccc3N)ncnc12`, the EC50 [4] is reported as > 100 µM, the inhibition [1] is reported as 42.3% and the IC50 [2] is reported as 58.6 µM. It also gave an inhibition at 30 µM [3] of 41.3%.
For `CC(C)c1n[nH]c2c(Nc3ccccc3Br)ncnc12`, the EC50 [4] was 18.7 µM, the inhibition [1] was 35.6% and the IC50 [2] was 16.1 µM. It also gave an inhibition at 30 µM [3] of 40.7%.
For `COc1cc(CNc2ncnc3c2ncn3C(C)C)ccc1O`, the inhibition [1] was 11.9%, the IC50 [2] was > 100 µM and the inhibition at 30 µM [3] was 9.5%.
With `CC(C)n1cnc2c(NC34CC5CC(CC(C5)C3)C4)ncnc21` the inhibition [1] was 66.1%, the IC50 [2] was 12.2 µM and the inhibition at 30 µM [3] was 72%.
With `COc1cc(CNc2ncnc3c(C(C)C)n[nH]c23)ccc1O` the EC50 [4] was > 100 µM, the inhibition [1] was 41% and the IC50 [2] was 100 µM. For the same molecule, the inhibition at 30 µM [3] was 10.4%.
Work on `COc1ccc(CNc2ncnc3c(C(C)C)n[nH]c23)cc1` yielded an EC50 [4] of 83 µM, an inhibition [1] of 36% and an IC50 [2] of 75.5 µM. For the same molecule, the inhibition at 30 µM [3] was 31.5%.
In the case of `CCCCCNc1ncnc2c1ncn2C(C)C`, the inhibition [1] is reported as 14.8%, the IC50 [2] is reported as > 100 µM and the inhibition at 30 µM [3] is reported as 22.6%.
With `COc1ccc(CNc2ncnc3c(C(C)C)n[nH]c23)cc1OC` the EC50 [4] was > 100 µM, the inhibition [1] was 19.9% and the IC50 [2] was > 100 µM. The inhibition at 30 µM [3] was 8.4%.
Molecule `CC(C)=CCNc1ncnc2c(C(C)C)n[nH]c12` has an EC50 [4] of 85 µM, an inhibition [1] of 32.5% and an IC50 [2] of 57.2 µM. The inhibition at 30 µM [3] was 45.5%.
In the case of `CC(C)n1cnc2c(NC3CCCCC3N)ncnc21` (stereo unspecified), the inhibition [1] is reported as -5.4%, the IC50 [2] is reported as > 100 µM and the inhibition at 30 µM [3] is reported as 4.5%.
Molecule `CC(C)c1n[nH]c2c(NCc3ccccc3)ncnc12` has an EC50 [4] of 68.6 µM, an inhibition [1] of 24.5% and an IC50 [2] of 54.2 µM. The inhibition at 30 µM [3] was 29.6%.
For `CC(C)n1cnc2c(NCc3cccc(O)c3)ncnc21`, the inhibition [1] was 8.8%, the IC50 [2] was > 100 µM and the inhibition at 30 µM [3] was 6.5%.
With `CC(C)n1cnc2c(Nc3ccccc3Br)ncnc21` the inhibition [1] was 1.8%, the IC50 [2] was > 100 µM and the inhibition at 30 µM [3] was 26.2%.
`CC(C)c1n[nH]c2c(Nc3cccc(Cl)c3)ncnc12` gave an EC50 [4] of 12.4 µM, an inhibition [1] of 81.3% and an IC50 [2] of 9.86 µM. For the same molecule, the inhibition at 30 µM [3] was 73.3%.
For `CC(C)c1n[nH]c2c(NCc3ccccc3O)ncnc12`, the EC50 [4] was 35.7 µM, the inhibition [1] was 68% and the IC50 [2] was 11.9 µM. It also gave an inhibition at 30 µM [3] of 87.4%.
For `CC(C)=CCNc1ncnc2c1ncn2C(C)C`, the inhibition [1] was 3.2%, the IC50 [2] was > 100 µM and the inhibition at 30 µM [3] was 0.04%.
In the case of `CCCCCNc1ncnc2c(C(C)C)n[nH]c12`, the EC50 [4] is reported as 54.7 µM, the inhibition [1] is reported as 46.5% and the IC50 [2] is reported as > 100 µM. The inhibition at 30 µM [3] was 27.3%.
`COc1ccc(CNc2ncnc3c(C(C)C)n[nH]c23)cc1O` gave an EC50 [4] of 94 µM, an inhibition [1] of 46.8% and an IC50 [2] of 28.2 µM. It also gave an inhibition at 30 µM [3] of 34.3%.
In the case of `CC(C)n1cnc2c(NCc3ccccc3O)ncnc21`, the inhibition [1] is reported as -2.8%, the IC50 [2] is reported as > 100 µM and the inhibition at 30 µM [3] is reported as 11.7%.
For `CC(C)c1n[nH]c2c(Nc3cccc(F)c3)ncnc12`, the EC50 [4] was 23.2 µM, the inhibition [1] was 70.4% and the IC50 [2] was 14.6 µM. For the same molecule, the inhibition at 30 µM [3] was 66.6%.
For `CC(C)n1cnc2c(Nc3cccc(F)c3)ncnc21`, the inhibition [1] was 30.4%, the IC50 [2] was 49.9 µM and the inhibition at 30 µM [3] was 16.5%.
With `CC(C)c1n[nH]c2c(NCc3ccco3)ncnc12` the EC50 [4] was > 100 µM, the inhibition [1] was 28.5% and the IC50 [2] was > 100 µM. It also gave an inhibition at 30 µM [3] of 16.6%.
For `CC(C)n1cnc2c(Nc3ccc(F)cc3)ncnc21`, the inhibition [1] was 53.3%, the IC50 [2] was 22.8 µM and the inhibition at 30 µM [3] was 21.5%.
For `CC(C)n1cnc2c(NCc3ccccc3)ncnc21`, the inhibition [1] was 18.5%, the IC50 [2] was > 100 µM and the inhibition at 30 µM [3] was 19.9%.
With `COc1ccc(CNc2ncnc3c2ncn3C(C)C)cc1` the inhibition [1] was -6.9%, the IC50 [2] was > 100 µM and the inhibition at 30 µM [3] was 15.1%.
